Entries after “also recorded” stand apart in the source; their conditions may differ. Where two headings read alike, the source gives them in different places.
How the values were obtained:
[1] = Lipophilic efficiency (LipE = pEC50 − cLogP) and cLogP
In short: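 pEC50 came from TM3-Gli-Luc Gli-responsive luciferase reporter cells stimulated with 20 nM SAG, with non-specific cytotoxicity monitored in parallel. LipE was calculated by subtracting cLogP from pEC50.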

[2] = biological target: consensus PDE4D sequence (Homo sapiens, UniProt Q08499); assay: PDE4D inhibition (consensus PDE4D sequence); type: biochemical
Sequence of consensus PDE4D sequence (Q08499 whole entry): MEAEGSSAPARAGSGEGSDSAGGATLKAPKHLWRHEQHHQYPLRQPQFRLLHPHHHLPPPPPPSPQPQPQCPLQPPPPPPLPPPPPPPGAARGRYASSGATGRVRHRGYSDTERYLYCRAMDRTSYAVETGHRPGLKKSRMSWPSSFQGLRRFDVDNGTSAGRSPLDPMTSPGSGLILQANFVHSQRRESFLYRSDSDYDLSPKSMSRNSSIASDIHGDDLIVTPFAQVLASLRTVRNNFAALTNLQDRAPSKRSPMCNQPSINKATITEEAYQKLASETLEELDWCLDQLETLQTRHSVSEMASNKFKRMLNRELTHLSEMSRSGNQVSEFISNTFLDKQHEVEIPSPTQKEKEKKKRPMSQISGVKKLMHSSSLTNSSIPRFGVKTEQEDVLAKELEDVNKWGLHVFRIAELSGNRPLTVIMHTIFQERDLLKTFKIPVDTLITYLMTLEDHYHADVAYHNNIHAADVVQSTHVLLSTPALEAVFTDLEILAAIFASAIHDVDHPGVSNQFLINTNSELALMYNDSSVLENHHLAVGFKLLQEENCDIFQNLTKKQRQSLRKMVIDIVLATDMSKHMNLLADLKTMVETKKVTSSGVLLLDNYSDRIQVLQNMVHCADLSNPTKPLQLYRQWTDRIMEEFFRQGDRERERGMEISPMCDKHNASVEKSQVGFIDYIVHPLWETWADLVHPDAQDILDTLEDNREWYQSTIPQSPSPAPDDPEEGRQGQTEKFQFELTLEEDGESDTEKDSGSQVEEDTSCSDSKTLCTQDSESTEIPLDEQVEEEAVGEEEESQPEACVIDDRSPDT
Source text: First, the contribution of PDE4 was revisited as a potential explanation for the observed mechanistic drift.

[3] = Mouse echocardiography after IP injection; type: in vivo; conditions: for Heart rate: 5 mg/kg to 20 mg/kg IP
Description: As shown below (FIGS. 28 and 29), ionotropic effects are seen within 30 minutes of eggmanone administration to a mouse (20 mg/kg IP injection). […] Mechanistically compound EGM targets the hydrolase PDE4. In Human adult myocardium, PDE4 localizes strictly to the z-bands.

[4] = test system: Bovine Viral Diarrhea Virus; assay: BVDV CPE assay; type: cell-based
Description: Provided in FIG. 37 are the results from BVDV (Bovine Viral Diarrhea Virus, surrogate for Hepatitis C virus) CPE ([…]) testing done. The assay was repeated with […] (a PDE4B and PDE4D inhibitor). Hi913 (our prototypic PDE4 inhibitor) was tested in half-log concentrations ranging from 100 μM to 0.33 μM. As the stock solution of […] was 10 mM, this meant that the final DMSO concentrations for the highest Hi913 concentrations were 1%, 0.33%, and 0.1%. The normal final DMSO concentrations used is 0.1%, so additional DMSO controls of 1% and 0.33% were included. The Hi913 data for the highest 3 concentrations is normalized to the respective DMSO concentrations. […] The outlier effects at 100 μM are probably due to cytotoxicity at the high drug concentration.

[5] = test system: otic kino-cilia motility; assay: Video-microscopy of zebrafish otic kino-cilia; type: in vivo; conditions: 2 μM
Source text: For visualizing ciliary beating, live embryos (20 hpf) were removed from their chorion, mounted in SeaPlaque low-melting agarose (Biowhittaker Molecular Applications) (1.0% in embryo medium) in microwells of glass-bottom culture dishes (MatTek), and covered with embryo medium. Movies were acquired by using OPENLAB software (Improvision) at 55 frames per second with a 63×DIC objective on a Zeiss Axiovert 200 inverted fluorescence microscope equipped with a Retiga Exi Fast camera (Qimaging). Kymographs were obtained by drawing a line across a ciliary trajectory by using ImageJ software (National Institutes of Health, developed by W. Rasband) and Multiple-Kymograph plugin (developed by J. Rietdorf and A. Seitz).

[6] = test system: PDE4D3-induced Hh reporter activity; assay: Hh reporter activity in Shh-Light2 cells transfected with PDE4D3; type: cell-based; conditions: 5 μM
Description: For Hh signaling assays, Shh-Light2 cells stably transfected with Gli-Luciferase reporter construct were used along with Shh-conditioned media, as previously described^7. Alternatively, 3 μM purmorphamine or 20 nM Smoothened agonist (SAG) (Santa Cruz Biotechnology, Santa Cruz, Calif.) was used to induce Hh signaling. Reporter cells were seeded in 96-well plates and incubated overnight with the various concentrations of eggmanone and Shh-conditioned media. To assess the effects of overexpression of Gli-2, PDE4D3 and DN-PDE4D3 on Hh signaling, mammalian expression vectors containing these constructs were transfected into Shh-Light2 cells in 96-well plates using Fugene6 (Roche), according to manufacturer's instructions. The transfected or Shh-stimulated cells were incubated overnight with the various concentrations of compound. The cells were then lysed, and cell extracts were subjected to Steady-Glo luciferase assay (Promega) according to manufacturer's instructions. The results were normalized to cell titer, as determined using Cell Titer-Glo luminescence assay (Promega).

[7] = test system: ptch1 expression; assay: Whole mount zebrafish in situ hybridization for ptch1; type: in vivo; conditions: 2 μM from 4 hpf
Description: In situ hybridization was performed as previously described. Zebrafish ptch1 probes were produced as previously described.

[8] = test system: SmoM2-Light cells; assay: Cell viability of SmoM2-Light cells; type: cell-based
Description: Cancer cell lines were seeded in 96 well tissue culture plate at a low density (10,000 cells per well) and treated with varying concentrations of Eggmanone. After 72 hr incubation, CellTiter-Blue Cell Viability Assay (Promega, Madison, Wis.) was then performed according to manufacturer's protocol. Absorbance was then measured in a Modulus Microplate reader (Promega, Madison, Wis.) at 590 nm and compared to cells treated with DMSO.

[9] = test system: IFT88 localization; assay: IFT88 immunostaining in NIH3T3 cells; type: cell-based; conditions: EGM 5 μM; ciliobrevin D 100 μM
Source text: To investigate whether the disruption of the cilium-to-nucleus trafficking of Gli2 by eggmanone was due to a general defect in the retrograde transport within the primary cilium, we compared the effect of the cytoplasmic dynein motor inhibitor ciliobrevin D with the effect of eggmanone on the intraflagellar transport protein 88 (IFT88) trafficking^19. […] Thus, the effects of eggmanone on Gli2 trafficking is specific, rather than an indirect consequence of a global defect in ciliary transport machinery.

[10] = test system: ptch1 expression; assay: RT-PCR of ptch1 in NIH3T3 cells stimulated with purmorphamine; type: cell-based; conditions: NIH3T3 fibroblasts
Description: NIH3T3 cells were stimulated with 3 μM purmorphamine in the presence of eggmanone or DMSO for 24-hours. Cells were collected and RNA isolated with RNeasy kit (Qiagen, Valencia, Calif.). After subsequent cDNA amplification using Superscript III (Invitrogen, Carlsbad, Calif.), samples were quantified by comparing Q-PCR cycle thresholds (Ct) for gene expression normalized to GAPDH. The following TaqMan probe and primer sets (Applied Biosystems) were used: GAPDH (Mm99999915_g1), and Patch1 (Mm01306905_mi).

[11] = Calculated as pEC50 - cLogP, Molinspiration Cheminformatics
[12] = healthy wild type mice and mice with heart failure

| SMILES | LipE [1, 11] | LipE ([1]; pEC50 - cLogP, Table 14) | PDE4D inhibition in words [2] | Heart rate [3] | Time to ionotropic effects ([3]; 20 mg/kg IP injection) | Fractional shortening (FS) [3, 12] | Antiviral effect on BVDV [4] | Otic kino-cilia movement [5] | Otic kino-cilia movement ([5]; listed as eggmanone) | Hh reporter activity induced by wild-type PDE4D3 overexpression [6] | Hh reporter activity induced by wild-type PDE4D3 overexpression ([6]; listed as eggmanone) | Hh-responsive ptch1 expression in embryos [7] | Viability of SmoM2 cells [8] | IFT88 localization in the cilium [9] | ptch1 expression in response to purmorphamine [10] | End-diastolic left ventricular internal dimension (LVIDd) [3, 12] | Side effects ([3]; mice) | Time to return to baseline heart function ([3]; mice) | Otic kino-cilia movement ([5]; listed as Egm) | Viability of SmoM2 cells ([8]; listed as Egm) |
| --- | --- | --- | --- | --- | --- | --- | --- | --- | --- | --- | --- | --- | --- | --- | --- | --- | --- | --- | --- | --- |
| CCCn1c(SCC(=O)c2cccs2)nc2sc3c(c2c1=O)CCCC3 [Formula 9e] | 1.06 | 1.06 | tracked well with EGM1's IC50:EC50 ratio | – | – | – | – | – | – | – | – | – | – | – | – | – | – | – | – | – |
| C=C(C)Cn1c(SCC(=O)c2ccccc2)nc2sc3c(c2c1=O)CCCC3 [Formula 9g] | −0.01 | −0.01 | tracked well with EGM1's IC50:EC50 ratio | – | – | – | – | – | – | – | – | – | – | – | – | – | – | – | – | – |
| C=C(C)Cn1c(SCC(=O)c2cccs2)nc2sc3c(c2c1=O)CCCC3 [Eggmanone, 3-(2-methylallyl)-2-((2-oxo-2-(thiophen-2-yl)ethyl)thio)-5,6,7,8-tetrahydrobenzo[4,5]thieno[2,3-d]pyrimidine-4(3H)-one] | – | – | – | without increasing heart rate | ≤ 30 min | increases fractional shortening (FS) and ejection fraction (EF) | has antiviral effects | markedly less motile | markedly less motile | abrogated; also recorded: abolished | abrogated | abrogated the expression of the Hh target gene patched-1 (ptch1) | efficiently and selectively killed SmoM2-Light cells | had no effect on IFT88 localization or cilium morphology | significantly inhibited ptch1 expression in response to purmorphamine | – | – | – | – | – |
| C=C(C)Cn1c(SCC(=O)c2cccs2)nc2sc3c(c2c1=O)CCCC3 [EGM, Eggmanone] | – | – | – | without increasing heart rate; also recorded: does not increase the heart rate | – | increases fractional shortening (FS) | – | cilium movement is markedly reduced | – | abolished | – | abolished Hh-responsive ptch1 expression in adaxial cells; also recorded: abolished Hh-responsive ptc1 expression in adaxial cells; also recorded: abolished Hh-responsive ptch1 expression in somites | – | did not affect IFT88 localization | significantly inhibited ptch1 expression in response to purmorphamine | decreases end-diastolic left ventricular internal dimension (LVIDd) | no significant side effects | ≤ 24 h | cilia movement is markedly reduced | rapid (within 24-hrs) decline in viability |
